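Where inhibition never reached the appropriate level, the endpoint shown equals the highest concentration tested. Otherwise, values were interpolated linearly from a five-concentration, 48-hour dose response in 96-well plates. At the GI50, growth is halved.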 Active and inactive are the calls of the source. No stated cut-off is given here; in the data, active = GI50 up to about 1.1 µM and inactive = higher.
Columns and labels:
Test in all cases: NCI anticancer screen, dose series, 48 h
SW-620 = test system: SW-620
HOP-62 = test system: HOP-62
CAKI-1 = test system: CAKI-1
HCT-15 = test system: HCT-15
SK-MEL-28 = test system: SK-MEL-28
KM12 = test system: KM12
PC-3 = test system: PC-3
NCI-H23 = test system: NCI-H23
NCI-H522 = test system: NCI-H522
NCI/ADR-RES = test system: NCI/ADR-RES
HCT-116 = test system: HCT-116
HL-60 = test system: HL-60
NCI-H460 = test system: NCI-H460
MDA-N = test system: MDA-N
SF-539 = test system: SF-539
HOP-92 = test system: HOP-92
OVCAR-3 = test system: OVCAR-3
HT-29 = test system: HT-29
NCI-H226 = test system: NCI-H226
SR = test system: SR

Row | Compound | GI50 (SW-620) | GI50 (HOP-62) | GI50 (CAKI-1) | GI50 (HCT-15) | GI50 (SK-MEL-28) | GI50 (KM12) | GI50 (PC-3) | GI50 (NCI-H23) | GI50 (NCI-H522) | GI50 (NCI/ADR-RES) | GI50 (HCT-116) | GI50 (HL-60) | GI50 (NCI-H460) | GI50 (MDA-N) | GI50 (SF-539) | GI50 (HOP-92) | GI50 (OVCAR-3) | GI50 (HT-29) | GI50 (NCI-H226) | GI50 (SR)
1 | COC(=O)[C@@]12CC3CN(Cc4c1[nH]c1ccccc41)C2CC3=O | > 100 µM (inactive) | > 100 µM (inactive) | > 100 µM (inactive) | > 100 µM | > 100 µM (inactive) | > 100 µM (inactive) | > 100 µM (inactive) | > 100 µM (inactive) | > 100 µM (inactive) | > 100 µM (inactive) | > 100 µM (inactive) | > 100 µM (inactive) | > 100 µM (inactive) | > 100 µM (inactive) | > 100 µM (inactive) | 26.7 µM (inactive) | > 100 µM (inactive) | > 100 µM (inactive) | > 100 µM (inactive) | 
2 | OCCc1ccsc1-c1sc(-c2cc(CCO)c(-c3sccc3CCO)s2)cc1CCO | 31.2 µM (inactive) | 14.5 µM (inactive) | 22.8 µM (inactive) | 12.4 µM | 18.5 µM (inactive) | 3.38 µM (inactive) | 11.8 µM (inactive) | 15.8 µM (inactive) | 12.2 µM (inactive) | 20.2 µM (inactive) | 16.6 µM (inactive) |  | 6.12 µM (inactive) | 21.6 µM (inactive) |  | 11.6 µM (inactive) | 18.1 µM (inactive) |  |  | 20.7 µM (inactive)
3 | CC(C)(C)OC(=O)N(O)CCCn1cnc2c(N)ncnc21 | > 100 µM (inactive) | > 100 µM (inactive) |  | > 100 µM | > 100 µM (inactive) | > 100 µM (inactive) | > 100 µM (inactive) | > 100 µM (inactive) | > 100 µM (inactive) | > 100 µM (inactive) | > 100 µM (inactive) |  | > 100 µM (inactive) | > 100 µM (inactive) | > 100 µM (inactive) | > 100 µM (inactive) | > 100 µM (inactive) | > 100 µM (inactive) | > 100 µM (inactive) | > 100 µM (inactive)
4 | C1COCCOP2(N3CC3)=NP(N3CC3)(=NP(N3CC3)(N3CC3)=N2)OCCOCCO1 (centres undefined) | > 100 µM (inactive) | > 100 µM (inactive) | > 100 µM (inactive) | > 100 µM |  | > 100 µM (inactive) | > 100 µM (inactive) | > 100 µM (inactive) | > 100 µM (inactive) | > 100 µM (inactive) | > 100 µM (inactive) | > 100 µM (inactive) |  | > 100 µM (inactive) | > 100 µM (inactive) |  | > 100 µM (inactive) | > 100 µM (inactive) | > 100 µM (inactive) | 50.4 µM (inactive)
5 | Clc1cc(OC2C3CC4CC(C3)CC2C4)nc(Cl)n1 (centres undefined) | 13.9 µM (inactive) | 25.9 µM (inactive) | 0.723 µM (active) | 14 µM | 15 µM (inactive) | 20.8 µM (inactive) | 19.2 µM (inactive) | 14.8 µM (inactive) | 12.4 µM (inactive) | 31.7 µM (inactive) | 14.3 µM (inactive) | 3.08 µM (inactive) | 17.7 µM (inactive) | 18.8 µM (inactive) | 20.7 µM (inactive) | 1.64 µM (inactive) | 18.1 µM (inactive) | 15.4 µM (inactive) |  | 3.52 µM (inactive)
6 | O=S(=O)(O)c1ccc2c(/N=N\c3ccc(F)cc3)c(O)c(S(=O)(=O)O)cc2c1 | > 100 µM (inactive) | > 100 µM (inactive) | > 100 µM (inactive) | > 100 µM | > 100 µM (inactive) | > 100 µM (inactive) | > 100 µM (inactive) | > 100 µM (inactive) | > 100 µM (inactive) | > 100 µM (inactive) | > 100 µM (inactive) | < 0.01 µM (active) |  | > 100 µM (inactive) |  | > 100 µM (inactive) | > 100 µM (inactive) | > 100 µM (inactive) |  | > 100 µM (inactive)
7 | CCOC(=O)/C=C1/Nc2cc(F)c(F)cc2NC1=O | > 100 µM (inactive) | > 100 µM (inactive) | > 100 µM (inactive) | > 100 µM | > 100 µM (inactive) | > 100 µM (inactive) | > 100 µM (inactive) | > 100 µM (inactive) |  | > 100 µM (inactive) | > 100 µM (inactive) | > 100 µM (inactive) | > 100 µM (inactive) | > 100 µM (inactive) | > 100 µM (inactive) | > 100 µM (inactive) | > 100 µM (inactive) | > 100 µM (inactive) | > 100 µM (inactive) | 
8 | CCN(CC)C(=O)Cn1c2c(c3ccccc31)CCCC2 | > 100 µM (inactive) | > 100 µM (inactive) | 57 µM (inactive) | 74.6 µM | > 100 µM (inactive) |  | 68.5 µM (inactive) | 45.4 µM (inactive) |  | 66.4 µM (inactive) | 40.9 µM (inactive) | 45.2 µM (inactive) | > 100 µM (inactive) | 77.8 µM (inactive) | 47.2 µM (inactive) | > 100 µM (inactive) | > 10 µM (inactive) | > 100 µM (inactive) |  | 49.9 µM (inactive)
9 | Cc1cc(C)nc(NC(=S)Nc2cccc(Cl)c2)c1 | > 100 µM (inactive) | > 75.7 µM (inactive) | 20.3 µM (inactive) | > 100 µM | > 100 µM (inactive) | > 100 µM (inactive) | > 100 µM (inactive) | > 100 µM (inactive) |  | > 100 µM (inactive) | > 100 µM (inactive) | > 100 µM (inactive) | > 45.8 µM (inactive) | > 100 µM (inactive) | > 100 µM (inactive) |  | > 100 µM (inactive) | > 83.4 µM (inactive) | > 100 µM (inactive) | 16.6 µM (inactive)
10 | O=c1[nH]c(=S)[nH]cc1CN1CCOCC1 | > 100 µM (inactive) | > 100 µM (inactive) | > 100 µM (inactive) | > 100 µM | > 100 µM (inactive) | > 100 µM (inactive) | > 100 µM (inactive) | > 100 µM (inactive) | > 100 µM (inactive) | > 100 µM (inactive) | > 100 µM (inactive) | > 100 µM (inactive) | > 100 µM (inactive) | > 100 µM (inactive) | > 100 µM (inactive) | > 100 µM (inactive) | > 100 µM (inactive) | > 100 µM (inactive) |  | > 100 µM (inactive)
11 | Nc1nc(Cl)cc(OCC2(CO)CCCC2)n1 | > 100 µM (inactive) | > 100 µM (inactive) |  | > 100 µM | > 100 µM (inactive) |  | > 100 µM (inactive) | > 100 µM (inactive) | > 100 µM (inactive) | > 100 µM (inactive) | > 100 µM (inactive) | > 100 µM (inactive) | > 100 µM (inactive) | > 100 µM (inactive) | > 100 µM (inactive) | > 100 µM (inactive) | > 100 µM (inactive) | > 100 µM (inactive) | > 100 µM (inactive) | 
12 | CC(C)(C)OC(=O)Nc1cc(-c2ccccc2)co1 | > 100 µM (inactive) | > 100 µM (inactive) | > 100 µM (inactive) | > 100 µM | > 100 µM (inactive) | > 100 µM (inactive) | 50.1 µM (inactive) | > 100 µM (inactive) | 17.3 µM (inactive) | > 100 µM (inactive) | 83.9 µM (inactive) | > 100 µM (inactive) |  | 86.3 µM (inactive) | > 100 µM (inactive) | 25.8 µM (inactive) | 94.2 µM (inactive) |  | > 100 µM (inactive) | 
13 | CC(=O)/N=C1\NC(=O)/C(=C/c2ccccc2Cl)N1C | > 100 µM (inactive) | > 100 µM (inactive) | > 100 µM (inactive) | 65.9 µM | > 100 µM (inactive) | > 100 µM (inactive) | > 100 µM (inactive) | > 100 µM (inactive) | > 100 µM (inactive) | 43.2 µM (inactive) | > 100 µM (inactive) | > 100 µM (inactive) | > 100 µM (inactive) | > 100 µM (inactive) | > 100 µM (inactive) | > 100 µM (inactive) | > 100 µM (inactive) | > 100 µM (inactive) | > 100 µM (inactive) | 
14 | Cc1cc(S(=O)(=O)Nc2nc(N)n(-c3ccccn3)n2)c(S)cc1Cl | > 100 µM (inactive) | > 100 µM (inactive) | > 100 µM (inactive) | > 100 µM | > 100 µM (inactive) | > 100 µM (inactive) | > 100 µM (inactive) |  | > 100 µM (inactive) | > 100 µM (inactive) | > 100 µM (inactive) | > 100 µM (inactive) | > 100 µM (inactive) | > 100 µM (inactive) | > 100 µM (inactive) |  | > 100 µM (inactive) | > 100 µM (inactive) | > 100 µM (inactive) | > 100 µM (inactive)
15 | CCOC(=O)c1cc(C2CCN(CC(C)CC)C2=S)c(C(=O)/C=C(/C)N)[nH]1 (centres undefined) | > 50 µM (inactive) | > 50 µM (inactive) | > 50 µM (inactive) | > 50 µM |  | > 50 µM (inactive) | > 50 µM (inactive) | > 50 µM (inactive) |  | > 50 µM (inactive) | > 50 µM (inactive) | > 50 µM (inactive) | > 50 µM (inactive) | > 50 µM (inactive) | > 50 µM (inactive) |  | > 50 µM (inactive) | > 50 µM (inactive) | > 50 µM (inactive) | > 50 µM (inactive)
16 | Cc1ccc(O)c(C(c2cccc(C(c3cc(C)ccc3O)c3cc(C)ccc3O)c2)c2cc(C)ccc2O)c1 | 1.66 µM (inactive) | 2.06 µM (inactive) | 1.52 µM (inactive) | 1.87 µM | 1.83 µM (inactive) | 1.65 µM (inactive) | 1.77 µM (inactive) | 1.75 µM (inactive) | 1.64 µM (inactive) | 3.01 µM (inactive) | 1.89 µM (inactive) | 2.01 µM (inactive) |  | 1.79 µM (inactive) | 1.75 µM (inactive) |  | 2.21 µM (inactive) | 1.66 µM (inactive) | 1.77 µM (inactive) | 2.73 µM (inactive)

— ChEMBL document CHEMBL1201862, “PubChem BioAssay data set” (2004)
